From PubChem BioAssay (NCI) come the findings set out here.

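1) Cells in 96-well plates. 2) Compound, 48 h, 5 concentrations. 3) Linear interpolation between surrounding doses. 4) Unreached endpoint = highest concentration. At the TGI there is no net growth.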 A value given as a limit tells only on which side of the number the result lay.

Some test systems named below: DLD-1 colon; DMS 114 small cell lung; DMS 273 small cell lung; HCT-15 colon; HOP-18 NSCLC; HOP-62 NSCLC; KM20L2 colon; LXFL 529 NSCLC; M19-MEL melanoma; NCI-H460 lung; RXF 393 renal; RXF-631 renal; SNB-78 CNS; TK-10 renal; U251 CNS; XF 498 CNS.
Common to all, as to assay: growth of human tumour cells (NCI), 48 h

In the case of `Nc1c([N+](=O)[O-])nc(Cl)c2nncn12`, the TGI is greater than 100 µM in the assay with DLD-1 colon; greater than 57.4 µM in the assay on DMS 114 small cell lung; 31.3 µM in the assay with DMS 273 small cell lung; 42.4 µM with HCT-15 colon; greater than 100 µM in the assay on HOP-18 NSCLC; greater than 100 µM in the assay on HOP-62 NSCLC. In addition, the TGI with KM20L2 colon, with LXFL 529 NSCLC, with M19-MEL melanoma, in the assay on NCI-H460 lung, with RXF 393 renal and with RXF-631 renal was greater than 100 µM throughout. For the same molecule, the TGI in the assay with SNB-78 CNS, in the assay on TK-10 renal, with U251 CNS and in the assay on XF 498 CNS was greater than 100 µM throughout.
As to `CCN(CC)c1ccc2c(c1)Oc1ccc(N(CC)CC)cc1C21Oc2ccccc2-c2c1c1ccccc1n2CC` (stereo not drawn), the TGI is greater than 100 µM in the assay on DLD-1 colon; 3.61 µM with DMS 114 small cell lung; greater than 100 µM in the assay with DMS 273 small cell lung; greater than 100 µM in the assay with HCT-15 colon; greater than 100 µM with HOP-18 NSCLC; greater than 100 µM in the assay on KM20L2 colon. In addition, the TGI in the assay with LXFL 529 NSCLC is greater than 100 µM; in the assay with RXF 393 renal it was greater than 100 µM; in the assay on RXF-631 renal it was greater than 100 µM; with SNB-78 CNS, greater than 100 µM; in the assay with U251 CNS, greater than 100 µM; with XF 498 CNS, 4.08 µM.
Turning to `CCOP1(=O)C=C(C)C(Cl)=C(C)C1` (stereo not drawn), the TGI in the assay with DLD-1 colon was greater than 100 µM; in the assay with DMS 114 small cell lung, 44.9 µM; in the assay on DMS 273 small cell lung, 30.8 µM; with HCT-15 colon, 73.7 µM; with HOP-18 NSCLC, greater than 100 µM; in the assay with HOP-62 NSCLC it was greater than 100 µM. Also, the TGI was greater than 100 µM with KM20L2 colon; 44.5 µM with LXFL 529 NSCLC; greater than 100 µM in the assay with M19-MEL melanoma; greater than 100 µM in the assay on NCI-H460 lung; 77.2 µM with RXF 393 renal; 30.5 µM with RXF-631 renal. Besides, the TGI with TK-10 renal was found to be 96.7 µM; with U251 CNS, 63.2 µM; with XF 498 CNS, 75.2 µM.
